Assay results from patent US9358217B2, “Methods for reducing triglyceride, total cholesterol and low density lipoprotein blood levels” (MediciNova, Inc., priority 2013, dated 2016).

What was measured:
Assay type in all cases: in vivo
LDL blood levels = test: Total LDL blood levels in human subjects upon MN-001 administration
Experimental: Human subjects were administered various daily amounts of MN-001 and placebo and their total LDL blood levels (mg/dl) measured at various time points.

[1] = test system: total cholesterol blood levels; test: Total cholesterol blood levels in human subjects upon MN-001 administration
Experimental: Human subjects were administered various daily amounts of MN-001 and placebo and their total cholesterol blood levels (mg/dl) measured at various time points.

blood levels of HDL = test: Blood levels of HDL upon administration of MN-001; conditions: human subjects
[2] = test system: triglyceride blood levels; test: Triglyceride blood levels in human subjects upon MN-001 administration
Experimental: Human subjects were administered various daily amounts of MN-001 and placebo and their triglyceride blood levels (mg/deciliter or dl) measured at various time points. […] As to the “week 14” time point in Table 1-D, it provides triglyceride levels of follow-up patients after MN-001 administration was stopped at 12 weeks.

[3] = human subjects, various daily amounts, with certain exceptions

CCCc1c(SCCCOc2ccc(C(C)=O)c(OCCCC(=O)O)c2CCC)ccc(C(C)=O)c1O [MN-001]
mean LDL blood level (LDL blood levels; Table 3-A Asthma Subjects, 500 mg tid (N = 36), Screening): 113.8 mg/dL | mean LDL blood level (LDL blood levels; Table 3-A Asthma Subjects, 500 mg tid (N = 36), Week 4): 105.4 mg/dL | mean LDL blood level (LDL blood levels; Table 3-A Asthma Subjects, 750 mg bid (N = 36), Screening): 100.3 mg/dL | mean LDL blood level (LDL blood levels; Table 3-A Asthma Subjects, 750 mg bid (N = 36), Week 4): 104.7 mg/dL | mean LDL blood level (LDL blood levels; Table 3-A Asthma Subjects, 750 mg qd (N = 36), Screening): 115.7 mg/dL | mean LDL blood level (LDL blood levels; Table 3-A Asthma Subjects, 750 mg qd (N = 36), Week 4): 106.9 mg/dL | mean LDL blood level (LDL blood levels; Table 3-B Interstitial Cystitis Subjects, 500 mg bid (N = 106), Baseline): 62.6 mg/dL | mean LDL blood level (LDL blood levels; Table 3-B Interstitial Cystitis Subjects, 500 mg bid (N = 106), Week 4): 54.5 mg/dL | mean LDL blood level (LDL blood levels; Table 3-B Interstitial Cystitis Subjects, 500 mg bid (N = 106), Week 8): 52.2 mg/dL | mean LDL blood level (LDL blood levels; Table 3-B Interstitial Cystitis Subjects, 500 mg qd (N = 94), Baseline): 65.8 mg/dL | mean LDL blood level (LDL blood levels; Table 3-B Interstitial Cystitis Subjects, 500 mg qd (N = 94), Week 4): 60.1 mg/dL | mean LDL blood level (LDL blood levels; Table 3-B Interstitial Cystitis Subjects, 500 mg qd (N = 94), Week 8): 55.5 mg/dL | mean LDL blood level (LDL blood levels; Table 3-C Healthy Subjects, 1500 mg/day × 10 days (N = 11), Day 11): 103.0 mg/dL | mean LDL blood level (LDL blood levels; Table 3-C Healthy Subjects, 1500 mg/day × 10 days (N = 11), Screening): 99.1 mg/dL | mean LDL blood level (LDL blood levels; Table 3-D Asthma Subjects, 500 mg tid (N = 54), Baseline): 100.2 mg/dL | mean LDL blood level (LDL blood levels; Table 3-D Asthma Subjects, 500 mg tid (N = 54), Week 4): 99.5 mg/dL | mean LDL blood level (LDL blood levels; Table 3-D Asthma Subjects, 500 mg tid (N = 54), Week 8): 99.1 mg/dL | mean LDL blood level (LDL blood levels; Table 3-D Asthma Subjects, 500 mg tid (N = 54), Week 12): 92.5 mg/dL | mean LDL blood level (LDL blood levels; Table 3-D Asthma Subjects, 500 mg tid (N = 54), Week 14 (follow-up, administration stopped at 12 weeks)): 102.6 mg/dL | mean LDL blood level (LDL blood levels; Table 3-D Asthma Subjects, 750 mg bid (N = 53), Baseline): 106.3 mg/dL | mean LDL blood level (LDL blood levels; Table 3-D Asthma Subjects, 750 mg bid (N = 53), Week 4): 102.3 mg/dL | mean LDL blood level (LDL blood levels; Table 3-D Asthma Subjects, 750 mg bid (N = 53), Week 8): 106.6 mg/dL | mean LDL blood level (LDL blood levels; Table 3-D Asthma Subjects, 750 mg bid (N = 53), Week 12): 110.9 mg/dL | mean LDL blood level (LDL blood levels; Table 3-D Asthma Subjects, 750 mg bid (N = 53), Week 14 (follow-up, administration stopped at 12 weeks)): 103.6 mg/dL | effect on mean LDL blood levels compared to control subjects (placebo) (LDL blood levels; [3]): substantial lowering | mean total cholesterol blood level ([1]; Table 2-A Asthma Subjects, 500 mg tid (N = 36), Screening): 193.5 mg/dL | mean total cholesterol blood level ([1]; Table 2-A Asthma Subjects, 500 mg tid (N = 36), Week 4): 183.1 mg/dL | mean total cholesterol blood level ([1]; Table 2-A Asthma Subjects, 750 mg bid (N = 36), Screening): 180.5 mg/dL | mean total cholesterol blood level ([1]; Table 2-A Asthma Subjects, 750 mg bid (N = 36), Week 4): 181.6 mg/dL | mean total cholesterol blood level ([1]; Table 2-A Asthma Subjects, 750 mg qd (N = 36), Screening): 191.5 mg/dL | mean total cholesterol blood level ([1]; Table 2-A Asthma Subjects, 750 mg qd (N = 36), Week 4): 180.6 mg/dL | mean total cholesterol blood level ([1]; Table 2-B Interstitial Cystitis Subjects, 500 mg bid (N = 106), Baseline): 174.5 mg/dL | mean total cholesterol blood level ([1]; Table 2-B Interstitial Cystitis Subjects, 500 mg bid (N = 106), Week 4): 169.8 mg/dL | mean total cholesterol blood level ([1]; Table 2-B Interstitial Cystitis Subjects, 500 mg bid (N = 106), Week 8): 168.7 mg/dL | mean total cholesterol blood level ([1]; Table 2-B Interstitial Cystitis Subjects, 500 mg qd (N = 94), Baseline): 173.8 mg/dL | mean total cholesterol blood level ([1]; Table 2-B Interstitial Cystitis Subjects, 500 mg qd (N = 94), Week 4): 171.5 mg/dL | mean total cholesterol blood level ([1]; Table 2-B Interstitial Cystitis Subjects, 500 mg qd (N = 94), Week 8): 170.5 mg/dL | mean total cholesterol blood level ([1]; Table 2-C Healthy Subjects, 1500 mg/day × 10 days (N = 11), Day 11): 167.8 mg/dL | mean total cholesterol blood level ([1]; Table 2-C Healthy Subjects, 1500 mg/day × 10 days (N = 11), Screening): 176.9 mg/dL | mean total cholesterol blood level ([1]; Table 2-D Asthma Subjects, 500 mg tid (N = 54), Baseline): 182.5 mg/dL | mean total cholesterol blood level ([1]; Table 2-D Asthma Subjects, 500 mg tid (N = 54), Week 4): 179.3 mg/dL | mean total cholesterol blood level ([1]; Table 2-D Asthma Subjects, 500 mg tid (N = 54), Week 8): 176.9 mg/dL | mean total cholesterol blood level ([1]; Table 2-D Asthma Subjects, 500 mg tid (N = 54), Week 12): 169.6 mg/dL | mean total cholesterol blood level ([1]; Table 2-D Asthma Subjects, 500 mg tid (N = 54), Week 14 (follow-up, administration stopped at 12 weeks)): 182.8 mg/dL | mean total cholesterol blood level ([1]; Table 2-D Asthma Subjects, 750 mg bid (N = 53), Baseline): 185.4 mg/dL | mean total cholesterol blood level ([1]; Table 2-D Asthma Subjects, 750 mg bid (N = 53), Week 4): 181.6 mg/dL | mean total cholesterol blood level ([1]; Table 2-D Asthma Subjects, 750 mg bid (N = 53), Week 8): 187.3 mg/dL | mean total cholesterol blood level ([1]; Table 2-D Asthma Subjects, 750 mg bid (N = 53), Week 12): 192.4 mg/dL | mean total cholesterol blood level ([1]; Table 2-D Asthma Subjects, 750 mg bid (N = 53), Week 14 (follow-up, administration stopped at 12 weeks)): 182.6 mg/dL | effect on mean total cholesterol blood levels compared to control subjects (placebo) [1, 3]: substantial lowering | effect on blood levels of HDL (blood levels of HDL): not altered substantially, if at all | mean triglyceride blood level ([2]; Table 1-A Asthma Subjects, 500 mg tid (N = 36), Screening): 109.5 mg/dL | mean triglyceride blood level ([2]; Table 1-A Asthma Subjects, 500 mg tid (N = 36), Week 4): 91.6 mg/dL | mean triglyceride blood level ([2]; Table 1-A Asthma Subjects, 750 mg bid (N = 36), Screening): 125.5 mg/dL | mean triglyceride blood level ([2]; Table 1-A Asthma Subjects, 750 mg bid (N = 36), Week 4): 98.5 mg/dL | mean triglyceride blood level ([2]; Table 1-A Asthma Subjects, 750 mg qd (N = 36), Screening): 112.2 mg/dL | mean triglyceride blood level ([2]; Table 1-A Asthma Subjects, 750 mg qd (N = 36), Week 4): 117.2 mg/dL | mean triglyceride blood level ([2]; Table 1-B Interstitial Cystitis Subjects, 500 mg bid (N = 106), Baseline): 135.7 mg/dL | mean triglyceride blood level ([2]; Table 1-B Interstitial Cystitis Subjects, 500 mg bid (N = 106), Week 4): 106.7 mg/dL | mean triglyceride blood level ([2]; Table 1-B Interstitial Cystitis Subjects, 500 mg bid (N = 106), Week 8): 110.7 mg/dL | mean triglyceride blood level ([2]; Table 1-B Interstitial Cystitis Subjects, 500 mg qd (N = 94), Baseline): 136.1 mg/dL | mean triglyceride blood level ([2]; Table 1-B Interstitial Cystitis Subjects, 500 mg qd (N = 94), Week 4): 109.5 mg/dL | mean triglyceride blood level ([2]; Table 1-B Interstitial Cystitis Subjects, 500 mg qd (N = 94), Week 8): 124.7 mg/dL | mean triglyceride blood level ([2]; Table 1-C Healthy Subjects, 1500 mg/day × 10 days (N = 11), Day 11): 87.5 mg/dL | mean triglyceride blood level ([2]; Table 1-C Healthy Subjects, 1500 mg/day × 10 days (N = 11), Screening): 145.4 mg/dL | mean triglyceride blood level ([2]; Table 1-D Asthma Subjects, 500 mg tid (N = 54), Baseline): 159.4 mg/dL | mean triglyceride blood level ([2]; Table 1-D Asthma Subjects, 500 mg tid (N = 54), Week 4): 112.5 mg/dL | mean triglyceride blood level ([2]; Table 1-D Asthma Subjects, 500 mg tid (N = 54), Week 8): 132.4 mg/dL | mean triglyceride blood level ([2]; Table 1-D Asthma Subjects, 500 mg tid (N = 54), Week 12): 147.7 mg/dL | mean triglyceride blood level ([2]; Table 1-D Asthma Subjects, 500 mg tid (N = 54), Week 14 (follow-up, administration stopped at 12 weeks)): 134.1 mg/dL | mean triglyceride blood level ([2]; Table 1-D Asthma Subjects, 750 mg bid (N = 53), Baseline): 117.0 mg/dL | mean triglyceride blood level ([2]; Table 1-D Asthma Subjects, 750 mg bid (N = 53), Week 4): 94.1 mg/dL | mean triglyceride blood level ([2]; Table 1-D Asthma Subjects, 750 mg bid (N = 53), Week 8): 101.4 mg/dL | mean triglyceride blood level ([2]; Table 1-D Asthma Subjects, 750 mg bid (N = 53), Week 12): 114.0 mg/dL | mean triglyceride blood level ([2]; Table 1-D Asthma Subjects, 750 mg bid (N = 53), Week 14 (follow-up, administration stopped at 12 weeks)): 104.6 mg/dL | triglyceride levels during follow-up period compared with a control group ([2]; Table 1-D, week 14, after administration was stopped at 12 weeks): continued their downward trend | effect on mean triglyceride blood levels compared to control subjects (placebo) [2, 3]: substantial lowering
